Experimental data from patent US20030166483A1, “Use of 3-iodine-2-propinyl-carbamates as antimicrobial active agent” (priority 2003, published 2003).

Tests used:
Format in all cases: cell-based
[1] = system: Cladosporium cladosporioides, DSM 62121; assay: Fungicidal activity by the DGHM germ carrier test; set-up: key: +: living culture; −: dead culture
Experimental: (§1) Candida albicans, ATCC 10231 (precultured on CaSo agar, 4 d/25° C.), Aspergillus niger, ATCC 6275 (precultured on malt agar, 8d/25° C.), Trichophyton mentagrophytes, ATCC 9533 (precultured on malt agar, 8d/25° C.), Cladosporium cladosporioides, DSM 62121 (precultured on malt agar, 8d/25° C.), Epicoccum nigrum, self-isolate (precultured on malt agar, 8d/25°).
(§2) The inocula were obtained by floating off the preculture plates with 0.05% Tween®80 and had the following germ contents:
(§3) The test was carried out under the Richtlinien für die Prüfung und Bewertung chemischer Desinfektionsverfahren (Guidelines for the Testing and Evaluation of Chemical Disinfection Processes) of the Deutsche Gesellschaft für Hygiene und Mikrobiologie (DGHM), Gustav Fischer Verlag, 1981:
(§4) 16 prewashed and autoclaved test specimens were placed in the above-mentioned inoculation suspensions of the test fungi and left therein for 15 minutes during which they were turned over several times. The test specimens thus contaminated were then transferred to empty Petri dishes where 10 ml of the test solutions were poured over them. After contact times of 60 and 120 minutes at 20° C., two of the test specimens were removed, briefly transferred to 10 ml of DGHM inactivator solution and then inoculated onto CaSo plates (Candida) or malt agar plates (other test fungi). Incubation lasted 7 days at 25° C. and was followed by qualitative evaluation, i.e. growth yes (+) or no (−).

[2] = system: Aspergillus niger, ATCC 6275; assay: Fungicidal activity by the DGHM germ carrier test; set-up: key: +: living culture; −: dead culture
Experimental: as §1, §2, §3, §4

[3] = system: Candida albicans, ATCC 10231; assay: Fungicidal activity by the DGHM germ carrier test; set-up: key: +: living culture; −: dead culture
Experimental: as §1, §2, §3, §4

[4] = system: Trichophyton mentagrophytes, ATCC 9533; assay: Fungicidal activity by the DGHM germ carrier test; set-up: key: +: living culture; −: dead culture
Experimental: as §1, §2, §3, §4

[5] = system: Epicoccum nigrum, self-isolate; assay: Fungicidal activity by the DGHM germ carrier test; set-up: key: +: living culture; −: dead culture
Experimental: as §1, §2, §3, §4

[6] = system: dermatophytes, fungi producing mildew spots and material-damaging fungi; assay: Fungistatic activity, overall result; conditions: by comparison with the reference preparation
Experimental: (§5) 1×1 cm prewashed and autoclaved test specimens of standard cotton cloth to DIN 53919 (WfK-Testgewebe GmbH, Adlerstr. 42, Krefeld) were placed in the test solutions for 15 minutes, removed under sterile conditions and dried for 14 h at room temperature. 0.1 ml inoculation suspensions of the test fungi mentioned above were inoculated into malt agar in a petri dish and, after the agar had solidified, 0.1 ml was spread over the agar surface with a spatula.
(§6) The test specimens impregnated with the test solutions were then placed on the agar surface under sterile conditions and the dishes were incubated for 7 days at 25° C. The inhibiting effect was then evaluated to the following scheme: […]

[7] = system: Cladosporium cladosporioides, DSM 62121; assay: Fungistatic activity by the inhibition test; conditions: 7 days at 25° C.; for inhibiting effect evaluation: impregnated cotton specimens
Experimental: as §1, §2, §5, §6

[8] = system: Aspergillus niger, ATCC 6275; assay: Fungistatic activity by the inhibition test; conditions: 7 days at 25° C.; for inhibiting effect evaluation: impregnated cotton specimens
Experimental: as §1, §2, §5, §6

[9] = system: Candida albicans, ATCC 10231; assay: Fungistatic activity by the inhibition test; conditions: 7 days at 25° C.; for inhibiting effect evaluation: impregnated cotton specimens
Experimental: as §1, §2, §5, §6

[10] = system: Trichophyton mentagrophytes, ATCC 9533; assay: Fungistatic activity by the inhibition test; conditions: 7 days at 25° C.; for inhibiting effect evaluation: impregnated cotton specimens
Experimental: as §1, §2, §5, §6

[11] = system: Epicoccum nigrum, self-isolate; assay: Fungistatic activity by the inhibition test; conditions: 7 days at 25° C.; for inhibiting effect evaluation: impregnated cotton specimens
Experimental: as §1, §2, §5, §6

[12] = 100 ppm, contact time 60 mins. at 20° C.
[13] = 100 ppm, contact time 120 mins. at 20° C.
[14] = 500 ppm, contact time 60 mins. at 20° C.
[15] = 500 ppm, contact time 120 mins. at 20° C.
[16] = 750 ppm, contact time 60 mins. at 20° C.
[17] = 750 ppm, contact time 120 mins. at 20° C.

CCCCNC(=O)OCC#CI [IPBC, 3-Iodo-2-propinyl butyl carbamate]
growth after contact (fungicidal activity) [1, 12]: 60 mins. + | growth after contact (fungicidal activity) [1, 13]: 120 mins. + | growth after contact (fungicidal activity) [1, 14]: 60 mins. − | growth after contact (fungicidal activity) [1, 15]: 120 mins. − | growth after contact (fungicidal activity) [1, 16]: 60 mins. − | growth after contact (fungicidal activity) [1, 17]: 120 mins. − | growth after contact (fungicidal activity) [2, 12]: 60 mins. + | growth after contact (fungicidal activity) [2, 13]: 120 mins. + | growth after contact (fungicidal activity) [2, 14]: 60 mins. + | growth after contact (fungicidal activity) [2, 15]: 120 mins. + | growth after contact (fungicidal activity) [2, 16]: 60 mins. + | growth after contact (fungicidal activity) [2, 17]: 120 mins. + | growth after contact (fungicidal activity) [3, 12]: 60 mins. + | growth after contact (fungicidal activity) [3, 13]: 120 mins. + | growth after contact (fungicidal activity) [3, 14]: 60 mins. + | growth after contact (fungicidal activity) [3, 15]: 120 mins. + | growth after contact (fungicidal activity) [3, 16]: 60 mins. + | growth after contact (fungicidal activity) [3, 17]: 120 mins. + | growth after contact (fungicidal activity) [4, 12]: 60 mins. + | growth after contact (fungicidal activity) [4, 13]: 120 mins. + | growth after contact (fungicidal activity) [4, 14]: 60 mins. − | growth after contact (fungicidal activity) [4, 15]: 120 mins. − | growth after contact (fungicidal activity) [4, 16]: 60 mins. − | growth after contact (fungicidal activity) [4, 17]: 120 mins. − | growth after contact (fungicidal activity) [5, 12]: 60 mins. + | growth after contact (fungicidal activity) [5, 13]: 120 mins. + | growth after contact (fungicidal activity) [5, 14]: 60 mins. − | growth after contact (fungicidal activity) [5, 15]: 120 mins. − | growth after contact (fungicidal activity) [5, 16]: 60 mins. − | growth after contact (fungicidal activity) [5, 17]: 120 mins. − | fungistatic activity (overall) [6]: very good fungistatic activity | inhibition zone ([7]; 100 ppm test solution): 1 mm | inhibiting effect evaluation ([7]; 100 ppm test solution): 0/0 | inhibition zone ([7]; 500 ppm test solution): 5-7 mm | inhibiting effect evaluation ([7]; 500 ppm test solution): 0/0 | inhibition zone ([7]; 750 ppm test solution): 5-7 mm | inhibiting effect evaluation ([7]; 750 ppm test solution): 0/0 | inhibition zone ([8]; 100 ppm test solution): 3-5 mm | inhibiting effect evaluation ([8]; 100 ppm test solution): 0/0 | inhibition zone ([8]; 500 ppm test solution): 9-11 mm | inhibiting effect evaluation ([8]; 500 ppm test solution): 0/0 | inhibition zone ([8]; 750 ppm test solution): 10-12 mm | inhibiting effect evaluation ([8]; 750 ppm test solution): 0/0 | inhibiting effect evaluation ([9]; 100 ppm test solution): 1/1 | inhibition zone ([9]; 500 ppm test solution): 3-5 mm | inhibiting effect evaluation ([9]; 500 ppm test solution): 0/0 | inhibition zone ([9]; 750 ppm test solution): 3-5 mm | inhibiting effect evaluation ([9]; 750 ppm test solution): 0/0 | inhibition zone ([10]; 100 ppm test solution): 3-6 mm | inhibiting effect evaluation ([10]; 100 ppm test solution): 0/0 | inhibition zone ([10]; 500 ppm test solution): 12-15 mm | inhibiting effect evaluation ([10]; 500 ppm test solution): 0/0 | inhibition zone ([10]; 750 ppm test solution): 15-18 mm | inhibiting effect evaluation ([10]; 750 ppm test solution): 0/0 | inhibition zone ([11]; 100 ppm test solution): 5-9 mm | inhibiting effect evaluation ([11]; 100 ppm test solution): 0/0 | inhibition zone ([11]; 500 ppm test solution): 11-14 mm | inhibiting effect evaluation ([11]; 500 ppm test solution): 0/0 | inhibition zone ([11]; 750 ppm test solution): 12-15 mm | inhibiting effect evaluation ([11]; 750 ppm test solution): 0/0
